Data taken from US10124004B2, “Pyrido[3,4-d]pyrimidine derivative and pharmaceutically acceptable salt thereof” (Teijin Pharma Limited, priority 2015, dated 2018).
Like-named read-outs stand apart in the source and are kept apart here.

Target: T1, CDK4/cyclin D3 (Homo sapiens, UniProt P11802)
T1 construct: purchased Carna Biosciences, Inc. QS S Assist CDK4/Cyclin D3_FP Kit
Assay: Human CDK4/cyclin D3 inhibitory activity (QS S Assist CDK4/Cyclin D3_FP Kit, IMAP fluorescence polarization)
Format: biochemical
Experimental: Human CDK4/Cyclin D3 Inhibitory Activity
Each compound was analyzed for CDK4/cyclin D3 inhibitory activity with an assay kit (QS S Assist CDK4/Cyclin D3_FP Kit, available from Carna Biosciences, Inc.). This assay kit determines kinase activity on the basis of the IMAP technology by Molecular Devices. Specifically, the kinase activity is determined through quantification of a variation in fluorescent polarization caused by binding of a kinase-phosphorylated fluorescent substance to an IMAP-binding reagent.
Each solution was prepared with the 10× assay buffer attached to the kit or a separately prepared assay buffer having the same composition as the assay buffer attached to the kit. An assay buffer was prepared by 10-fold dilution of the 10× assay buffer with distilled water. The assay buffer contains 20 mM HEPES (pH 7.4), 0.01% Tween20, and 2 mM dithiothreitol. A test compound solution was prepared by dilution of the test compound with dimethyl sulfoxide (DMSO) to a concentration 100 times higher than the final concentration and then 25-fold dilution with the assay buffer to a concentration four times higher than the final concentration. An ATP/substrate/Metal solution was prepared by five-fold dilution of the 5×ATP/substrate/Metal solution attached to the kit with the assay buffer. An enzyme solution was prepared by dilution of the CDK4/cyclin D3 attached to the kit with the assay buffer to a concentration twice higher than the final concentration (final concentration of CDK4/cyclin D3:12.5 to 25 ng/well). A detection reagent was prepared by five-fold dilution of each of 5× IMAP-binding buffer A and 5×IMAP-binding buffer B with distilled water, mixing of IMAP-binding buffer A with IMAP-binding buffer B at a ratio of 85:15, and 400-fold dilution of the IMAP-binding reagent with the mixed buffer.
The test compound solution (5 μL/well) and the ATP/substrate/Metal solution (5 μL/well) were added to a 384-well plate, and the enzyme solution or the assay buffer (10 μL/well) was added to the plate (total amount of the reaction mixture: 20 μL/well) for initiation of enzymatic reaction. […] The reaction was performed at room temperature for 45 minutes, and the detection reagent (60 μL/well) was then added to the plate, followed by further reaction for 30 minutes at room temperature under light shielding conditions. Subsequently, fluorescent polarization was determined with a microplate reader at an excitation wavelength of 485 nm and an emission wavelength of 535 nm.
The percent inhibition of enzyme activity was calculated for each test compound (note: enzyme activity=100% in the case of addition of the enzyme solution and addition of DMSO instead of the test compound solution, whereas enzyme activity=0% in the case of addition of the assay buffer instead of the enzyme solution, and addition of DMSO instead of the test compound solution). The percent inhibition of enzyme activity was fitted to a dose-response curve, to determine a 50% inhibitory concentration against CDK4/cyclin D3.
In each table, “+++” corresponds to IC50<10 nM, “++” 10 nM≤IC50<100 nM, and “+” 100 nM≤IC50.

[1] = Human CDK4/cyclin D3 inhibitory activity, read-out: CDK4 Activity symbol
[2] = 50% inhibitory concentration against CDK4/cyclin D3, given as class symbol

T1 sequence (P11802 whole entry): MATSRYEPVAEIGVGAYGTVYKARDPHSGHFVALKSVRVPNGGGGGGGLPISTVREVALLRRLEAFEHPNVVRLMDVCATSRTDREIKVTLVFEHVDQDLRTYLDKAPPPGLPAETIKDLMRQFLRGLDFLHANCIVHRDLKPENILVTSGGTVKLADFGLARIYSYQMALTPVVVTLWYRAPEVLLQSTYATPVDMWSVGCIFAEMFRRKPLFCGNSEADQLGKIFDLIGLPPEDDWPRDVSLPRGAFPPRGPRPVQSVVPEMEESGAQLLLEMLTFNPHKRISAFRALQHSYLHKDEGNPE
T1 sequence (P30281 whole entry partner): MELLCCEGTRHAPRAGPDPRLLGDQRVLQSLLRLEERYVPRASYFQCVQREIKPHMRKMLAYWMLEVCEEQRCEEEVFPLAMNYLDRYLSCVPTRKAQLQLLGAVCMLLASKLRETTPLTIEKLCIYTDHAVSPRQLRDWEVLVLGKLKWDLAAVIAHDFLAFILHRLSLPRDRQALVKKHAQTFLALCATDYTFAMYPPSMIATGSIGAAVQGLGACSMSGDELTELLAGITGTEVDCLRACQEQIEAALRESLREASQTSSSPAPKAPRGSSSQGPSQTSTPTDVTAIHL

Row | SMILES | IC50 [1] [nM] | IC50 [2] [nM]
1 | CO[C@H](C)c1cc2cnc(Nc3ccc(N4CCNC(=O)C(C)(C)C4)cn3)nc2c(NC(C)C)n1 [Compound 514] | 10 to 100 | –
2 | COC(C)c1cc2cnc(Nc3ccc(CN4CCNC5(CC5)C4)cn3)nc2c(NC(C)C)n1 (stereo not drawn) [Compound 515] | 10 to 100 | –
3 | CC(C)Nc1nc(C(C)O)cc2cnc(Nc3ccc(CN4CCNC5(CC5)C4)cn3)nc12 (stereo not drawn) [Compound 516] | 10 to 100 | –
4 | CNCCCOc1ccc(Nc2ncc3cc([C@@H](C)OC)nc(NC(C)C)c3n2)nn1 [Compound 527] | 10 to 100 | –
5 | CNC(=O)CNc1ccc(Nc2ncc3cc([C@@H](C)O)nc(NC(C)C)c3n2)nc1 [Compound 539] | 10 to 100 | –
6 | CO[C@H](C)c1cc2cnc(Nc3ccc(N4CCNCC(C)(C)C4=O)cn3)nc2c(NC(C)C)n1 [Compound 542] | 10 to 100 | –
7 | CC(C)Nc1nc([C@@H](C)O)cc2cnc(Nc3ccc(O[C@H]4CNCC[C@@H]4F)nn3)nc12 [Compound 547] | < 10 | –
8 | CNCCOc1ccc(Nc2ncc3cc([C@@H](C)OC)nc(NC(C)C)c3n2)nn1 [Compound 551] | 10 to 100 | –
9 | CNCCOc1ccc(Nc2ncc3cc([C@@H](C)O)nc(NC(C)C)c3n2)nn1 [Compound 552] | < 10 | –
10 | CC(C)Nc1nc([C@@H](C)O)cc2cnc(Nc3ccc(O[C@H]4CCNC[C@@H]4F)nn3)nc12 [Compound 563] | < 10 | –
11 | CC(C)Nc1nc([C@@H](C)O)cc2cnc(Nc3ccc(O[C@@H]4CCNC[C@@H]4F)nn3)nc12 [Compound 564] | < 10 | –
12 | CC(C)Nc1nc([C@@H](C)O)cc2cnc(Nc3ccc(O[C@H]4CCCNC4)cn3)nc12 [Compound 565] | < 10 | –
13 | CC(C)Nc1nc([C@@H](C)O)cc2cnc(Nc3ccc(OC4CNC4)cn3)nc12 [Compound 568] | < 10 | –
14 | CC(C)Nc1nc([C@@H](C)O)cc2cnc(Nc3ccc(OCC4CNC4)cn3)nc12 [Compound 570] | < 10 | –
15 | CC(C)Nc1nc([C@@H](C)O)cc2cnc(Nc3ccc(O[C@@H]4CCCNC4)cn3)nc12 [Compound 571] | < 10 | –
16 | CC(C)Nc1nc(C(C)O)cc2cnc(Nc3ccc(OC4CNCCC4F)cn3)nc12 (stereo not drawn) [Compound 577] | < 10 | –
17 | CC(C)Nc1nc([C@@H](C)O)cc2cnc(Nc3ccc(OCC4(F)CNC4)cn3)nc12 [Compound 578] | < 10 | –
18 | CC(C)Nc1nc([C@@H](C)O)cc2cnc(Nc3ccc(SCCN(C)C)cn3)nc12 [Compound 580] | 10 to 100 | –

Row | SMILES | IC50 [1] [nM] | IC50 [2] [nM]
19 | CC(C)Nc1nc([C@@H](C)O)cc2cnc(Nc3ccc(N4CCN(CC(C)(C)C)CC4)nn3)nc12 [Compound 587] | < 10 | –
20 | CNC1(C)CCN(c2ccc(Nc3ncc4cc([C@@H](C)OC)nc(NC(C)C)c4n3)nn2)CC1 [Compound 594] | < 10 | –
21 | CC(C)Nc1nc([C@@H](C)O)cc2cnc(Nc3ccc(N4CCN(C(C)CO)CC4=O)cn3)nc12 (stereo partly drawn) [Compound 598] | < 10 | –
22 | CO[C@H](C)c1cc2cnc(Nc3ccc(N4CCN(C(C)(C)C)CC4)nn3)nc2c(NC(C)C)n1 [Compound 599] | 10 to 100 | –
23 | CC(C)Nc1nc([C@@H](C)O)cc2cnc(Nc3ccc(N4CCN(CC(C)(C)C)CC4=O)cn3)nc12 [Compound 603] | < 10 | –
24 | CC(C)Nc1nc(C(C)O)cc2cnc(Nc3ccc(N4CCC(O)C(F)C4)nn3)nc12 (stereo not drawn) [Compound 607] | < 10 | –
25 | CC(C)Nc1nc([C@@H](C)O)cc2cnc(Nc3ccc(N4CCNCC4=O)nn3)nc12 [Compound 613] | 10 to 100 | –
26 | CC(C)Nc1nc([C@@H](C)O)cc2cnc(Nc3ccc(CC(=O)N4CCN(CCO)CC4)cn3)nc12 [Compound 616] | < 10 | –
27 | CC(C)Nc1nc([C@@H](C)O)cc2cnc(Nc3ccc(N4CCC(O)C(F)(F)C4)nn3)nc12 (stereo partly drawn) [Compound 617] | < 10 | –
28 | CC(C)Nc1nc([C@@H](C)O)cc2cnc(Nc3ccc(N4CC5(CNC(=O)C5)C4)nn3)nc12 [Compound 620] | < 10 | –
29 | CO[C@H](C)c1cc2cnc(Nc3ccc(N4CCN(CCC(=O)O)CC4)nn3)nc2c(NC(C)C)n1 [Compound 684, (R)-3-(4-(6-((8-(isopropylamino)-6-(l-methoxyethyl)pyrido[3,4-d]pyrimidin-2-yl)amino)pyridazin-3-yl)piperazin-1-yl)propanoic acid] | – | 10 to 100
30 | CO[C@H](C)c1cc2cnc(Nc3ccc(CN4CCN(CCC(=O)O)CC4)cn3)nc2c(NC(C)C)n1 [Compound 685] | – | 10 to 100
31 | CC(C)Nc1nc([C@@H](C)O)cc2cnc(Nc3ccc(N4CC5CC(C4)C5O)nn3)nc12 (stereo partly drawn) [Compound 687] | – | < 10
32 | CC(C)Nc1nc([C@@H](C)O)cc2cnc(Nc3ccc(N4CCC(C)(CO)CC4)nn3)nc12 [Compound 688] | – | < 10
33 | CO[C@H](C)c1cc2cnc(Nc3ccc(CN4CCN(CCCC(=O)O)CC4)cn3)nc2c(NC(C)C)n1 [Compound 697] | – | 10 to 100
34 | CO[C@H](C)c1cc2cnc(Nc3ccc(N4CCN(CCCC(=O)O)CC4)nn3)nc2c(NC(C)C)n1 [Compound 699] | – | 10 to 100
35 | CC(C)Nc1nc([C@@H](C)O)cc2cnc(Nc3ccc(N4CC(F)(CO)C4)nn3)nc12 [Compound 707] | – | < 10

The remaining lines, values ahead:

Row | IC50 [1] [nM] | IC50 [2] [nM] | SMILES
36 | < 10 | – | CC(C)Nc1nc([C@@H](C)O)cc2cnc(Nc3ccc(N4CCCC(O)C4)nn3)nc12 (stereo partly drawn) [Compound 517]
37 | < 10 | – | CO[C@H](C)c1cc2cnc(Nc3ccc(CC(=O)N4CCNCC4)cn3)nc2c(NC(C)C)n1 [Compound 518]
38 | < 10 | – | CC(C)Nc1nc([C@@H](C)O)cc2cnc(Nc3ccc(N4CCC(N5CCOCC5)CC4)nn3)nc12 [Compound 520]
39 | < 10 | – | CO[C@H](C)c1cc2cnc(Nc3ccc(N4CC5(CC(O)C5)C4)nn3)nc2c(NC(C)C)n1 [Compound 523]
40 | < 10 | – | CO[C@H](C)c1cc2cnc(Nc3ccc(N4C[C@@H]5C[C@H]4CN5)cn3)nc2c(NC(C)C)n1 [Compound 525]
41 | < 10 | – | CNCCCOc1ccc(Nc2ncc3cc([C@@H](C)O)nc(NC(C)C)c3n2)nc1 [Compound 528]
42 | < 10 | – | CNCCCOc1ccc(Nc2ncc3cc([C@@H](C)O)nc(NC(C)C)c3n2)nn1 [Compound 530]
43 | < 10 | – | CO[C@H](C)c1cc2cnc(Nc3ccc(N4CCN(C)CC4)nn3)nc2c(NC(C)C)n1 [Compound 531]
44 | < 10 | – | CO[C@H](C)c1cc2cnc(Nc3ccc(N4CC(=O)NCC4=O)cn3)nc2c(NC(C)C)n1 [Compound 533]
45 | < 10 | – | CO[C@H](C)c1cc2cnc(Nc3ccc(CN4CCNC(C)(C)C4)cn3)nc2c(NC(C)C)n1 [Compound 534]
46 | < 10 | – | CO[C@H](C)c1cc2cnc(Nc3ccc(CN4CCNC5(CC5)C4)cn3)nc2c(NC(C)C)n1 [Compound 535]
47 | < 10 | – | CC(C)Nc1nc([C@@H](C)O)cc2cnc(Nc3ccc(CN4CCNC(C)(C)C4)cn3)nc12 [Compound 536]
48 | < 10 | – | CC(C)Nc1nc([C@@H](C)O)cc2cnc(Nc3ccc(N(C)C(=O)CN)cn3)nc12 [Compound 538]
49 | < 10 | – | CC(C)Nc1nc([C@@H](C)O)cc2cnc(Nc3ccc(N4CCNC(=O)C4)nn3)nc12 [Compound 540]
50 | < 10 | – | CC(C)Nc1nc([C@@H](C)O)cc2cnc(Nc3ccc(OC4CCCNC4)nn3)nc12 (stereo partly drawn) [Compound 541]
51 | < 10 | – | CC(C)Nc1nc([C@@H](C)O)cc2cnc(Nc3ccc(N4CCNCC(C)(C)C4=O)cn3)nc12 [Compound 543]
52 | < 10 | – | CC(C)Nc1nc([C@@H](C)O)cc2cnc(Nc3ccc(OC4CCNC4)nn3)nc12 (stereo partly drawn) [Compound 544]
53 | < 10 | – | CC(C)Nc1nc([C@@H](C)O)cc2cnc(Nc3ccc(O[C@H]4CNC[C@@H]4F)nn3)nc12 [Compound 545]
54 | < 10 | – | CC(C)Nc1nc([C@@H](C)O)cc2cnc(Nc3ccc(OC4CNC4)nn3)nc12 [Compound 546]
